# Experimental data from patent US9517214B2, “Fat-based food products” (IP Science Limited, priority 2011, dated 2016).
# How the values were obtained:
# [1] = daily consumption of 6-10 mg lycopene; cited from earlier work
# [2] = system: clinically healthy volunteers with hypercholesterolaemia; assay: Serum lipids (TC, TG, HDL, LDL) in trial of lycopene, butter and L-Butter; format: in vivo, human; settings: after one week of administration of 7 mg of lycopene
# Procedure: (§1) Clinically Healthy Volunteers with Hypercholesterolaemia
# (§2) Commercially available butter (President, Lactalis) was melted at 40° C. The melted butter was blended with tomato oleoresin, containing 15% of lycopene (Lyc-O-Mato), in the ratio of […] of oleoresin to 30 g of the butter in a thermo-controlled mixer. The mixture was blended for 10 minutes and cooled down to the room temperature. The butter was then divided into daily 30 g portions. Butter was stored at 4° C. until use. Freshly made batches of the L-Butter were made weekly.
# (§3) Each portion of 30 g butter contained 47.1 mg of tomato oleoresin or about 7 mg of lycopene.
# (§4) The melting and mixing procedures were performed as described above using the same commercially available butter, but instead of tomato oleoresin, sunflower oil (Flora™) was used.
# (§5) 47.1 mg of tomato oleoresin was pre-dissolved in ethanol and mixed with Whey Protein as described in Richelle et al (2002) J. Nutr 132 404-408, WO01/091588 and US2002/01072992. Then the mixture was placed into gelatine capsules.
# (§6) 18 clinically healthy volunteers, 9 males and 9 females, age 45-69, were recruited for this study.
# (§7) • elevated total serum cholesterol above 200 mg/dL and/or triglycerides above 150 mg/dL, • all patients were naive for any lipid-lowering medications, • willing participate in the study. […]
# (§8) All blood samples were coded. Their lab analysis and reading of the results were blinded. […]
# [3] = system: clinically healthy volunteers with hypercholesterolaemia; assay: Antibody inflammatory marker Px-IgG in the same trial; format: in vivo, human; settings: 7 mg lycopene daily, capsules; Baseline; individual volunteers
# Procedure: as §1, §2, §3, §4, §5, §6, §7, §8
smiles,measurement,setting,value
CC(C)=CCC/C(C)=C/C=C/C(C)=C/C=C/C(C)=C/C=C/C=C(C)/C=C/C=C(C)/C=C/C=C(\C)CCC=C(C)C [Lycopene],effect on cholesterol or other blood lipids,[1],no effect
same,"changes in levels of elevated cholesterol, triglycerides and markers of oxidative damage or inflammation",[2],not any changes
same,Px-IgG,[3],0.765 U/ml
